{
  "source": "patent US20150010502A1",
  "about": "“Compositions and Methods for Suppressing Gene Expression of p53 and Clusterin” (priority 2011, published 2015)",
  "key": {"[1]": {"test_system": "U2OS cells (osteosarcoma)", "assay": "U2OS cells treated with PMO, cisplatin followed by Go6976 (FIG. 5)", "format": "cell-based", "details": "PMO 3 uM 2 h; for enhancement of sensitivity to cisplatin: Cis 5 uM 24 h", "protocol": "FIG. 5 is a graph showing the results obtained with U2OS cells treated with PMO (3 uM, 2 h), Cis (5 uM, 24 h) followed by Go6976 (100 nM, 24 h).\n(§1) In further studies, additional agents were tested in conjunction with p53 morpholinos. […] We also tested these agents on U2OS cells (osteosarcoma). Again a dramatic effect on cell cycle that is dependent on PMOs and Go is observed. PMOs give a 3-fold enhancement of drug sensitivity in the caspase 3 assay. We also assessed U2OS cells treated with PMOs (p53-A and p53-B) +/−cisplatin+/−Go6976."}, "[2]": {"test_system": "U2OS cells (osteosarcoma)", "assay": "U2OS cells treated with PMO, Dox followed by Go6976: cell cycle and caspase 3 assay (FIG. 4)", "format": "cell-based", "details": "PMO 3 uM 2 h, Dox 200 ng/ml 24 h, +/- Go6976 100 nM 24 h", "protocol": "FIG. 4 is a graph showing the results obtained with U2OS cells treated with PMO (3 uM, 2 h), Dox (200 ng/ml, 24 h) followed by Go6976 (100 nM, 24 h).\nas §1"}, "clusterin": {"test_system": "clusterin", "details": "cited from earlier work"}},
  "note": "e = 2'-O-(2-methoxyethyl) (MOE); d = 2'-deoxy (DNA)",
  "data": [
    {"compound": "Cn1c2ccccc2c2c3c(c4c5ccccc5n(CCC#N)c4c21)CNC3=O", "note": "[Go6976]", "values": [
      {"measurement": "effect of Go6976 on the PMO enhancement of cisplatin sensitivity", "setting": "[1]; Cis 5 uM 24 h followed by Go6976 100 nM 24 h", "value": "potentiates this enhancement"}
    ]},
    {"compound": "PMO A: p53 morpholino (PMO) with sequence corresponding to Seq Id 136 (NU(4)p53); (RX)8B CPP used in in vitro testing (CCATGGCAGTGACCCGGAAGGC; all phosphorodiamidate morpholino (PMO); (RX)8B cell-penetrating peptide conjugated, position not given here)", "values": [
      {"measurement": "enhancement of drug sensitivity in the caspase 3 assay", "setting": "[2]", "value": 3, "unit": "fold"},
      {"measurement": "enhancement of sensitivity to cisplatin", "setting": "[1]", "value": "about 3 fold"}
    ]},
    {"compound": "PMO B: p53 morpholino (PMO) with sequence corresponding to Seq Id 140 (NU(7)p53); (RX)8B CPP used in in vitro testing (GCATCAAATCATCCATTGCTTG; all phosphorodiamidate morpholino (PMO); (RX)8B cell-penetrating peptide conjugated, position not given here)", "values": [
      {"measurement": "enhancement of drug sensitivity in the caspase 3 assay", "setting": "[2]", "value": 3, "unit": "fold"},
      {"measurement": "enhancement of sensitivity to cisplatin", "setting": "[1]", "value": "about 3 fold"}
    ]},
    {"compound": "SEQ ID NO: 3: clusterin antisense oligo 5′-CAGCAGCAGAGTC TTCATCAT-3′, all phosphorothioate, terminal four nucleosides each end 2′-O-methyoxyethyl (CAGCAGCAGAGTCTTCATCAT; sugars from the 5' end e4 d13 e4, all phosphorothioate, methylation of C not given here)", "values": [
      {"measurement": "sensitization of cancer cells to radiation and chemotherapeutic agents", "setting": "clusterin; cancer cells including prostate cancer cells", "value": "modestly sensitize some cancer cells"},
      {"measurement": "suppressive activity on clusterin expression", "setting": "clusterin", "value": "relatively poor suppressive activity"},
      {"measurement": "effect on induction of apoptosis", "setting": "clusterin; some cancer cells, including those deficient in p21 (WAF-1) expression", "value": "can inhibit the induction of apoptosis in some cancer cells"}
    ]}
  ]
}
